ChEMBL document CHEMBL1201862, “PubChem BioAssay data set” (2004)
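These data come from cells grown in 96-well plates and exposed to compound for 48 hours at five concentrations. GI50 is the concentration that inhibits growth by half.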 Calls of active or inactive are those of the source. Cut-off read from the data, not from the text of the source: active = GI50 up to about 1.1 µM and inactive = higher.

Tests used:
Assay in all cases: growth of human tumour cells (NCI), 48 h
[1] = test system: UACC-62
[2] = test system: SK-MEL-28
[3] = test system: CCRF-CEM
[4] = test system: SNB-19
[5] = test system: A549
[6] = test system: MDA-N
[7] = test system: OVCAR-3
[8] = test system: U-251
[9] = test system: SK-MEL-5
[10] = test system: SW-620
[11] = test system: KM12
[12] = test system: COLO 205
[13] = test system: MCF7
[14] = test system: NCI-H226
[15] = test system: HCT-116
[16] = test system: NCI-H23
[17] = test system: LOX IMVI
[18] = test system: TK-10
[19] = test system: Malme-3M
[20] = test system: SF-268

Compound	GI50 [1]	GI50 [2]	GI50 [3]	GI50 [4]	GI50 [5]	GI50 [6]	GI50 [7]	GI50 [8]	GI50 [9]	GI50 [10]	GI50 [11]	GI50 [12]	GI50 [13]	GI50 [14]	GI50 [15]	GI50 [16]	GI50 [17]	GI50 [18]	GI50 [19]	GI50 [20]
COc1nc2c(c(=O)n1C)N=C(c1ccccc1)[C@H](C(CC(=O)c1ccccc1)c1ccccc1)C(c1ccccc1)N2 (some centres undefined)	> 100 µM (inactive)	> 100 µM (inactive)	> 100 µM (inactive)	> 100 µM (inactive)	32.3 µM (inactive)	35.8 µM (inactive)	> 100 µM (inactive)	> 100 µM (inactive)	60.8 µM (inactive)	> 100 µM (inactive)	30.8 µM (inactive)	98.9 µM (inactive)	36.1 µM (inactive)	69.2 µM (inactive)	88.1 µM (inactive)	> 100 µM (inactive)	> 100 µM (inactive)	–	–	–
N#CC(Cc1ccccc1Br)N(CCC1=CCCCC1)C(c1ccccc1)c1ccccc1 (centres undefined)	97.1 µM (inactive)	> 100 µM (inactive)	–	> 100 µM (inactive)	93.3 µM (inactive)	41.4 µM (inactive)	75.5 µM (inactive)	83.8 µM (inactive)	46 µM (inactive)	73.8 µM (inactive)	64.9 µM (inactive)	50.8 µM (inactive)	52.4 µM (inactive)	–	32.8 µM (inactive)	27.8 µM (inactive)	–	> 100 µM (inactive)	> 100 µM (inactive)	> 100 µM (inactive)
O=C(OCC(Cl)(Cl)Cl)N1CC[C@H](C2CCCCC2)C1	22.1 µM (inactive)	–	15.5 µM (inactive)	16.5 µM (inactive)	14.9 µM (inactive)	34.9 µM (inactive)	16.6 µM (inactive)	1.09 µM (active)	14.9 µM (inactive)	–	17.3 µM (inactive)	18.8 µM (inactive)	18.6 µM (inactive)	–	14.6 µM (inactive)	15.3 µM (inactive)	19.5 µM (inactive)	18.8 µM (inactive)	–	21 µM (inactive)
N#C/C(=C\N1CCNC1=S)C(=O)c1ccc2ccccc2c1	> 100 µM (inactive)	> 100 µM (inactive)	–	> 100 µM (inactive)	> 100 µM (inactive)	> 100 µM (inactive)	> 100 µM (inactive)	> 100 µM (inactive)	> 100 µM (inactive)	> 100 µM (inactive)	> 100 µM (inactive)	> 100 µM (inactive)	> 100 µM (inactive)	> 100 µM (inactive)	> 100 µM (inactive)	> 100 µM (inactive)	> 100 µM (inactive)	> 100 µM (inactive)	–	> 100 µM (inactive)
O=c1oc2ccc3ccccc3c2cc1-c1cn2ccsc2n1	16.2 µM (inactive)	26 µM (inactive)	3.89 µM (inactive)	> 100 µM (inactive)	49.9 µM (inactive)	21.4 µM (inactive)	17.9 µM (inactive)	71.9 µM (inactive)	15.4 µM (inactive)	16.8 µM (inactive)	20.6 µM (inactive)	16.1 µM (inactive)	3.03 µM (inactive)	–	16 µM (inactive)	25.2 µM (inactive)	15.8 µM (inactive)	17.9 µM (inactive)	21.2 µM (inactive)	24.8 µM (inactive)
COc1cccc(/N=N/C(=NNC(=O)c2ccc(C)cc2)c2ccc(N(C)C)cc2)c1	–	> 100 µM (inactive)	> 100 µM (inactive)	> 100 µM (inactive)	> 100 µM (inactive)	39.7 µM (inactive)	65.2 µM (inactive)	> 100 µM (inactive)	98.2 µM (inactive)	> 100 µM (inactive)	> 100 µM (inactive)	44.3 µM (inactive)	> 100 µM (inactive)	> 100 µM (inactive)	> 100 µM (inactive)	> 100 µM (inactive)	> 100 µM (inactive)	> 100 µM (inactive)	–	> 100 µM (inactive)
COc1ccc(/N=C2\C(=N/c3ccc(OC)cc3)N(c3ccccc3[N+](=O)[O-])C(=S)N2c2ccc(OC)cc2)cc1	78.9 µM (inactive)	> 100 µM (inactive)	–	> 100 µM (inactive)	> 100 µM (inactive)	49.8 µM (inactive)	> 100 µM (inactive)	> 100 µM (inactive)	35.2 µM (inactive)	> 100 µM (inactive)	> 100 µM (inactive)	17.1 µM (inactive)	> 100 µM (inactive)	61.9 µM (inactive)	35.6 µM (inactive)	> 100 µM (inactive)	–	> 100 µM (inactive)	–	> 100 µM (inactive)
COc1cc(O)c(C(=O)/C=C/c2ccc(O)cc2)cc1Oc1ccc(/C=C/C(=O)c2ccc(O)cc2O)cc1 [RHUSCHALCONE III]	8.61 µM (inactive)	8.41 µM (inactive)	7.29 µM (inactive)	12.9 µM (inactive)	14.8 µM (inactive)	8.93 µM (inactive)	8.07 µM (inactive)	7.98 µM (inactive)	7.36 µM (inactive)	11.2 µM (inactive)	6.75 µM (inactive)	8.43 µM (inactive)	8.69 µM (inactive)	–	7.85 µM (inactive)	11.1 µM (inactive)	8.45 µM (inactive)	9.79 µM (inactive)	8.38 µM (inactive)	8.81 µM (inactive)
CS(=O)(=O)OCOS(C)(=O)=O	> 100 µM (inactive)	> 100 µM (inactive)	18.5 µM (inactive)	> 100 µM (inactive)	> 100 µM (inactive)	> 100 µM (inactive)	> 100 µM (inactive)	> 100 µM (inactive)	> 100 µM (inactive)	34.4 µM (inactive)	> 100 µM (inactive)	75.3 µM (inactive)	34.4 µM (inactive)	40.6 µM (inactive)	> 100 µM (inactive)	69 µM (inactive)	43.8 µM (inactive)	> 100 µM (inactive)	–	–
COC(=O)C1CCC(=O)N1C(c1cc(OC)c(OC)c(OC)c1)c1cccc2ccccc12 (centres undefined)	45 µM (inactive)	> 100 µM (inactive)	–	> 100 µM (inactive)	> 100 µM (inactive)	60.5 µM (inactive)	> 100 µM (inactive)	> 100 µM (inactive)	–	> 100 µM (inactive)	> 100 µM (inactive)	–	> 100 µM (inactive)	> 100 µM (inactive)	> 100 µM (inactive)	–	> 100 µM (inactive)	> 100 µM (inactive)	–	15.3 µM (inactive)
CS/C(=N/S(=O)(=O)c1ccc(Cl)cc1)NCCCN/C(=N\S(=O)(=O)c1ccc(Cl)cc1)SC	16.9 µM (inactive)	25.8 µM (inactive)	16.7 µM (inactive)	80.7 µM (inactive)	–	12.1 µM (inactive)	6.93 µM (inactive)	29.4 µM (inactive)	–	45.6 µM (inactive)	–	21.5 µM (inactive)	8.28 µM (inactive)	–	21.6 µM (inactive)	–	14 µM (inactive)	14.5 µM (inactive)	15.7 µM (inactive)	9.48 µM (inactive)
